Test results published in BindingDB's records for patent US20250320228 (Merck Patent, 2025).

Target: Mitogen-activated protein kinase kinase kinase kinase 1 (Homo sapiens, UniProt Q92918)
Assay: HPK1 Kinase Assay
Method: A recombinant fusion protein consisting of full-length human HPK1 (MAP4K1) with an N-terminal Glutatione S-transferase (GST) tag was produced in insect cells Sf21 using the baculovirus expression system. GST-HPK1 protein was purified from cell lysates by glutathione Sepharose affinity chromatography. The assay is run in three continuous steps: 1) the HPK1 enzymatic kinase reaction, 2) an ATP depletion, and 3) the ADP detection, the steps 2 and 3 are performed with ADP-Glo™ Kinase Assay kit from Promega (V9101). Test compounds were prepared by 10-point serial dilution in dimethyl sulfoxide (DMSO) and 100 nL of each dilution was spotted onto a 384-well Optiplate (Perkin Elmer and Cat #6007299) by Labcyte Echo. 5 μL kinase reaction buffer (0.02% Brij-35, 2 mM DTT, 50 mM HEPES pH 7.5, MgCl2 10 mM, BSA 0.01% and β-glycerophosphate 12.5 mM) containing HPK1 (3.2 nM) enzyme was transferred to each well and incubated for 15 minutes at room temperature at 60% humidity. The enzymatic reaction was started by adding 5 μl of Start-Mix (10 μM ATP and 3.235 μM MBP). After 120 minutes, the reaction was stopped by adding 5 μL of ADP-Glo reagent (Promega, V9101) and incubating for 40 min. in the dark at 23° C. To determine the level of ADP, 10 μl ADP-Glo Detection solution was added and incubated for 1 hour at 23° C. in the dark. The plate was transferred to a Perkin Elmer EnVision (2104 Multilabel Reader) for luminescence detection and percent inhibition activity and IC50 value were determined using Genedata Screener.

Sequence of Mitogen-activated protein kinase kinase kinase kinase 1 (Q92918 whole entry): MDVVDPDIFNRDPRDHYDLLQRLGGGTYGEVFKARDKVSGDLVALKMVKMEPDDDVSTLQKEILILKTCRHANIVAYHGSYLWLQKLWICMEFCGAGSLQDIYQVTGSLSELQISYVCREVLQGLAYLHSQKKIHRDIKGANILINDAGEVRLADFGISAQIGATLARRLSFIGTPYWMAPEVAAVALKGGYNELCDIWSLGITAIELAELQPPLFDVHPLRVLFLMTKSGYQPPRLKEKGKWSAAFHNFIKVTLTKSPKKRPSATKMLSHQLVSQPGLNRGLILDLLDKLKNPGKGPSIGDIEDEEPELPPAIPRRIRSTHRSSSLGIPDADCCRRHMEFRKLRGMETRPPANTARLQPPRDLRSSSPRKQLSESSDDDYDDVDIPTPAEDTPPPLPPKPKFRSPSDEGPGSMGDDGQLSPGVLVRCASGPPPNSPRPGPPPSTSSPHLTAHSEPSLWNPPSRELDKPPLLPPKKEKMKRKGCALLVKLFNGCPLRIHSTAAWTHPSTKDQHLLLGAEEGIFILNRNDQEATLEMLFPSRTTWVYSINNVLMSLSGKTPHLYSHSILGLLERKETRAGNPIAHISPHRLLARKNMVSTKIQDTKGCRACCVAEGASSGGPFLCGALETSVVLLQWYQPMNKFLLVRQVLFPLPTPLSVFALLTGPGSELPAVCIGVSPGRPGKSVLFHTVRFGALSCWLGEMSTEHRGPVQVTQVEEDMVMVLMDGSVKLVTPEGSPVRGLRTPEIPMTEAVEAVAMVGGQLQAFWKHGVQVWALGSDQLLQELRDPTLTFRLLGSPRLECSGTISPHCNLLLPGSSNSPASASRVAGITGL

SMILES	IC50 [nM]
C[C@@H](N)CNc1ncnc2c(C(N)=O)cc(-c3ccc(CN4CCOCC4)cc3)nc12 [US20250320228, Example 25]	< 100
NC(=O)c1cc(-c2ccc(OC(F)(F)F)cc2)nc2c(N[C@@H]3CNC[C@H](F)C3)ncnc12 [US20250320228, Example 71]	< 100
NC(=O)c1cc(-c2ccc(CN3CCOCC3)cc2)nc2c(N[C@@H]3CNC[C@H](F)C3)ncnc12 [US20250320228, Example 26]	< 100
NC(=O)c1cc(-c2ccc(CN3CCOCC3)cc2)nc2c(N3CC[C@@H](F)[C@H](N)C3)ncnc12 [US20250320228, Example 22]	> 1000
NC(=O)c1cc(-c2ccc(CN3CCOCC3)cc2)nc2c(NC34CNCC3C4)ncnc12 (stereo not given) [US20250320228, Example 20]	< 100

The next lines start with the values.

IC50 [nM]	SMILES
> 1000	COCc1n[nH]c(-c2cc(C(N)=O)c3ncnc(N[C@H]4CCCNC4)c3n2)n1 [US20250320228, Example 13]
< 100	CN1CCc2cc(-c3cc(C(N)=O)c4ncnc(N[C@H]5CCCNC5)c4n3)nn2CC1=O [US20250320228, Example 45]
< 100	NC(=O)c1cc(-c2ccc(CN3CCOC[C@H]3C(F)(F)F)cc2)nc2c(N[C@H]3CCCNC3)ncnc12 [US20250320228, Example 15]
< 100	NC(=O)c1cc(-c2cc(F)c(OCC3(O)CCC3)c(F)c2)nc2c(N[C@H]3CCCNC3)ncnc12 [US20250320228, Example 39]
< 100	N#C[C@H]1COCCN1Cc1ccc(-c2cc(C(N)=O)c3ncnc(N[C@H]4CCCNC4)c3n2)cc1 [US20250320228, Example 14]
